Drawing on patent publication US8163763B2, “Pyrimidine compounds, compositions and methods of use” (Genentech, Inc., priority 2008, dated 2012), this text covers Ki for five compounds.

Chain of mTOR kinase (purified recombinant mTOR(1360-2549)+GBL) (P42345 1360-2549): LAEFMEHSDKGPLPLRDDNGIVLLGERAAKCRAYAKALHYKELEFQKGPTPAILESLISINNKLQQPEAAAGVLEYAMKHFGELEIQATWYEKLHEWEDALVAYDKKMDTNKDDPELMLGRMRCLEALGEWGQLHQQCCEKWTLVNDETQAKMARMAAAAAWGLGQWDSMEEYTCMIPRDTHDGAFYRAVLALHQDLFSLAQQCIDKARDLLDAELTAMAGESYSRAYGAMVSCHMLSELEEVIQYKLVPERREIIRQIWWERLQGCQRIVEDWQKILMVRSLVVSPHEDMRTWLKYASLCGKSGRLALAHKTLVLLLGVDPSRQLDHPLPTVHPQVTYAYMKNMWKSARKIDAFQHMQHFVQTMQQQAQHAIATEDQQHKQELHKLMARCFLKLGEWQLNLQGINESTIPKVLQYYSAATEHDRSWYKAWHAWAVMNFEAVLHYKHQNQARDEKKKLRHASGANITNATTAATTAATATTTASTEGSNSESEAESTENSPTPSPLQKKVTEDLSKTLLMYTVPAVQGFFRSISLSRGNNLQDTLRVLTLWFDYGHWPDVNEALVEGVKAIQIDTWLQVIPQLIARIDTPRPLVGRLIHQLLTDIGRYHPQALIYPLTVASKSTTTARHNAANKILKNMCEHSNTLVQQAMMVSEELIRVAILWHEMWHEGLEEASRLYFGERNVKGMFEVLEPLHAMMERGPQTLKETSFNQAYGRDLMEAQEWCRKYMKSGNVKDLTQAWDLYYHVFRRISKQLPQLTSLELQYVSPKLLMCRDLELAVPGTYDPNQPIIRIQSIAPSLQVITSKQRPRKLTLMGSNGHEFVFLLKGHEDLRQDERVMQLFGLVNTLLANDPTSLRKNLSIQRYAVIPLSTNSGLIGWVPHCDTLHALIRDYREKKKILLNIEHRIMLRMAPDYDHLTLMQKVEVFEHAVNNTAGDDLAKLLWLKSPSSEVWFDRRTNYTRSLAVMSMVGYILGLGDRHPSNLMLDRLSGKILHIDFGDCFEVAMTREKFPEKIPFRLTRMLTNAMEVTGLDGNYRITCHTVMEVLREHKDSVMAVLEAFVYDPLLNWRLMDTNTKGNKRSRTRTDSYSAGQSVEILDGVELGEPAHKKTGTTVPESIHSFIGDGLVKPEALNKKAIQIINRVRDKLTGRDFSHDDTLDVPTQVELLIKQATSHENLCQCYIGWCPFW
Chain of mTOR kinase (purified recombinant mTOR(1360-2549)+GBL) (Q9BVC4 whole entry partner): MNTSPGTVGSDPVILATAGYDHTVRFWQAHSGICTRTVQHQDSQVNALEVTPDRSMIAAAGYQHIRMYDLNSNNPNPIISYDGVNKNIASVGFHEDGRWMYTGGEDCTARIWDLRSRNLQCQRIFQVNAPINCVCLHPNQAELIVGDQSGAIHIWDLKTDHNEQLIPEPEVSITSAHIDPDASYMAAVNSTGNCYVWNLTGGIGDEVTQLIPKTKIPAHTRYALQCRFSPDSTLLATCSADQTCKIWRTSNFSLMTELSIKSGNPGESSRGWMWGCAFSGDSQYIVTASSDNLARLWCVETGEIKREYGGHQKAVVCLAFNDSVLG

For the assay, the target named is mTOR kinase (purified recombinant mTOR(1360-2549)+GBL) (Homo sapiens, UniProt P42345). The experiment in a line: In vitro mTOR kinase assay (TR-FRET). In kind it is biochemical. To be noted: mTOR kinase assay of Example 496; read-out: Ki. An excerpt:
a. In vitro mTOR Kinase Assay
The reaction is stopped by an addition of a Terbium-labeled phospho-specific antibody, e.g., Tb-labeled anti-p4E-BP1 T37/T46, (Invitrogen, product #PR8835A), EDTA, and TR-FRET buffer solution (Invitrogen, Product #PR3756B). Product formation is detected by way of time-resolved fluorescence resonance energy transfer (TR-FRET), which occurs when the phosphorylated substrate and labeled antibody are in close proximity due to phospho-specific binding. Enzymatic activity is measured as an increase in TR-FRET signal using a Perkin Elmer Envision plate reader.
Compound activity is tested in 10 point dose curves starting at the highest final concentration of 10 uM. They are serially diluted in 100% DMSO prior to further dilution with assay buffer. […] 8 μL of solution containing 2 nM Tb-anti-p4E-BP1 antibody & 10 mM EDTA diluted TR-FRET buffer is then added and incubated for 30 minutes to stop the reaction. The plate is scanned with the Envision plate reader. Ki values are calculated in Assay Explorer using the Morrison ATP-competitive tight binding equation for Ki apparent determination.
Background: In TR-FRET formats the signal depends on donor and acceptor labels being close together.
Usually Ki stands for a measure of affinity in units of concentration, obtained from inhibition or displacement. Consider `CCNC(=O)Nc1ccc(-c2nc3c(c(N4CCOCC4)n2)CN(Cc2cccc(O)c2)C3)cc1` [drawing 624], for which the Ki amounted to 0.009 µM.

As to `CCNC(=O)Nc1ccc(-c2nc3c(c(N4CCCOCC4)n2)CN(C(=O)OCc2ccccc2)C3)cc1` [drawing 625], the Ki was 0.002 µM.

On to `O=C(Nc1ccc(-c2nc3c(c(N4CCOCC4)n2)CN(c2ncccn2)C3)cc1)NC1CCCC1` [drawing 626], for which the Ki stood at 0.0412 µM.

`c1cnc(N2CCc3c(nc(-c4ccc5[nH]ncc5c4)nc3N3CCOCC3)C2)nc1` [drawing 628]: the inhibitory constant (Ki) was determined as 0.636 µM.

Turning to `CCNC(=O)Nc1ccc(-c2nc3c(c(N4CCOCC4)n2)CN(C(=O)Cc2ccccc2)CC3)cc1` [drawing 633], the Ki was determined as 0.052 µM.
